The values below come from US20220142884A1, “TREATMENT OF AGING OR UV-DAMAGED SKIN” (Echo Pharmaceuticals B.V., priority 2019, published 2022).

In experiment [1] the test system is UV-B induced secretion of prostaglandin E2 (PGE2). Description: UV-B induced secretion of PGE2 in keratinocyte HaCaT cells (ELISA). Type of experiment: cell-based, Human. The conditions noted are these: component concentrations (μg/ml) per sample. The method, then:
(§1) This assay was conducted on Human Epidermal Keratinocyte cells (HaCaT) and was carried out in triplicates. After reaching the required confluency, the cells were treated with pre-prepared growth medium containing the test component(s) at a final volume of 200 μL/well. Growth medium without test component was used to prepare the blank samples. The cells were incubated for 24 hr. Then, the medium was replaced with PBS (containing the test component) and the cells were subjected to 25 mJ/cm^2 (Table 2) or 12.5 mJ/cm^2 (Table 3) UV-B irradiation. The flux was determined by an external […]. Immediately after irradiation, the PBS was aspirated, and the cells were further incubated with freshly prepared media incubated for 24 hr. at 37° C. with 5% CO2. After incubation, the conditioned medium of the different treatment groups was collected under standardized conditions and centrifuged at 250×g for 5 min to remove particulates. Clear supernatants were frozen at -70° C. until analyses. The UVB-induced cytokines secretion of PGE2 was measured by commercial ELISA, according to the manufacturer's instructions. The percentage inhibition was determined by comparing PGE2 levels in the test samples with PGE2 level in the stimulated controls. Example 1 was repeated in HaCaT cells, using the lower UV-B dosage (12.5 mJ/cm^2 flux). In addition, an extra test component was used (docosahexaenoic acid).
(An ELISA detects its analyte on a solid surface through an enzyme-linked reagent.)

In experiment [2] the test system is UV-B induced secretion of interleukin 8 (IL-8). Description: UV-B induced secretion of IL-8 in HaCaT cells (ELISA). Type of experiment: cell-based, Human. The conditions noted are these: UV-B as in Example 1, vs stimulated controls, component concentrations (μg/ml) per sample. The method, then: as §1, with “analyses. […]” for “analyses. The UVB-induced cytokines secretion of PGE2 was measured by commercial ELISA, according to the manufacturer's instructions.”, “comparing IL-8” for “comparing PGE2”, “with the IL-8” for “with PGE2”, “controls.” for “controls. Example 1 was repeated in HaCaT cells, using the lower UV-B dosage (12.5 mJ/cm^2 flux). In addition, an extra test component was used (docosahexaenoic acid).”

The next experiment relates to collagen production. Particulars: skin organ cultures, inhibition of PGE2 synthesis; cited from earlier work.
Where [3] appears, read: 25 mJ/cm^2 UV-B, 24 hr pre-incubation, vs stimulated controls.
Setting [4] is: lower UV-B dosage 12.5 mJ/cm^2, vs stimulated controls.

For `C=C(C)[C@@H]1CCC(C)=C[C@H]1c1c(O)cc(CCCCC)cc1O` [Sample 1, Cannabidiol], the “Inhibition (%) PGE2” value in experiment [1] (setting [3]) was 0%; in experiment [1] (setting [4]) it was −11%. Also, the “Inhibition (%) IL-8” value in experiment [2] is listed as −1%.

`C=C(C)[C@@H]1CCC(C)=C[C@H]1c1c(O)cc(CCCCC)cc1O` [Sample 2, Cannabidiol]: the “Inhibition (%) PGE2” value in experiment [1] (setting [3]) was 17%; in experiment [1] (setting [4]), −8%. The “Inhibition (%) IL-8” value in experiment [2] is given as 3%.

Take `CC/C=C\C/C=C\C/C=C\C/C=C\C/C=C\CCCC(=O)O` [Sample 3, eicosapentaenoic acid]: the “Inhibition (%) PGE2” value is −11% in experiment [1] (setting [3]) and −3% in experiment [1] (setting [4]). Besides, the “Inhibition (%) IL-8” value in experiment [2] is −6%.

As for `CC/C=C\C/C=C\C/C=C\C/C=C\C/C=C\CCCC(=O)O` [Sample 4, eicosapentaenoic acid], the “Inhibition (%) PGE2” value in experiment [1] (setting [3]) is given as 1%; in experiment [1] (setting [4]), 5%. Further, the “Inhibition (%) IL-8” value in experiment [2] was −16%.

`O=C(O)Cc1ccccc1Nc1c(Cl)cccc1Cl` [diclofenac]: the collagen production entry with collagen production was “enhanced collagen production”.
